Holding throughout (assay): Antibacterial activity in vitro, agar plate dilution method (MIC)
What all share (assay type): cell-based

The test system of assay [1] is Klebsiella pneumoniae IF03317. The settings on record: 10^6 cells/ml, Mueller Hinton agar, 37° C., 20 hours. The protocol:
(§1) Antibacterial activity in vitro was determined in accordance with the agar plate dilution method. A platinum loop each of test bacteria (10^6 cells/ml), cultured in Mueller Hinton broth, was inoculated on Mueller Hinton agar plates which contained test compounds at various concentrations. After cultivating at 37° C. for 20 hours, the minimum inhibitory concentration (MIC μg/ml) was determined.

The subject of the next assay is Proteus morganii IF03848. To be noted: Morganella morganii, 10^6 cells/ml, Mueller Hinton agar, 37° C., 20 hours. The method, then:
as §1

Assay [2] has as its system Staphylococcus aureus Smith. The settings on record: 10^6 cells/ml, Mueller Hinton agar, 37° C., 20 hours. The method, then:
as §1

The test system of a further assay is Escherichia coli 67. The settings on record: 10^6 cells/ml, Mueller Hinton agar, 37° C., 20 hours. The protocol:
as §1

The subject of assay [3] is Serratia marcescens IF03759. The settings on record: 10^6 cells/ml, Mueller Hinton agar, 37° C., 20 hours. The protocol: as §1
The subject of assay [4] is Pseudomonas aeruginosa IF03445. The settings on record: 10^6 cells/ml, Mueller Hinton agar, 37° C., 20 hours. The protocol: as §1

Converted amounts (≈) assume the structure as drawn.

The MIC is the lowest concentration found to suppress growth. In the case of `CO/N=C(\C(=O)N[C@@H]1C(=O)N2C(C(=O)O)=C(CSc3c(C(=O)O)cnc4ncnn34)CS[C@H]12)c1csc(N)n1` [Compound 3, (6R,7R)-7-[2-(2-amino-4-thiazolyl)-2-(Z-methoxyimino)acetamido]-3-[(6-carboxy-s-triazolo[1,5-a]pyrimidin-7-yl)-thiomethyl]-8-oxo-5-thia-1-azabicyclo [4.2.0]oct-2-ene-2-carboxylic acid], the minimal inhibitory concentration (MIC) in assay [1] was less than 0.05 µg/mL; with Proteus morganii IF03848 it was 1.57 µg/mL (≈ 2.65 µM); in assay [2] it was 12.5 µg/mL (≈ 21.1 µM); in the assay on Escherichia coli 67 it was 0.39 µg/mL (≈ 0.659 µM); in assay [3], 0.78 µg/mL (≈ 1.32 µM); in assay [4] it was more than 100 µg/mL.
For the compound `CO/N=C(\C(=O)N[C@@H]1C(=O)N2C(C(=O)O)=C(CSc3cc(C)nc4nc(CC(=O)O)nn34)CS[C@H]12)c1csc(N)n1` [Compound 4, (6R,7R)-7-[2-(2-amino-4-thiazolyl)-2-(Z-methoxyimino)acetamido]-3-[(2-carboxymethyl-5-methyl-s-triazolo[1,5-a]pyrimidin-7-yl)thiomethyl]-8-oxo-5-thia-1-azabicyclo[4.2.0]oct-2-ene-2-carboxylic acid], the MIC in assay [1] is less than 0.05 µg/mL; against Proteus morganii IF03848 it was 0.78 µg/mL (≈ 1.26 µM); in assay [2] it was 3.13 µg/mL (≈ 5.05 µM); against Escherichia coli 67, 0.2 µg/mL (≈ 0.323 µM); in assay [3], 0.1 µg/mL (≈ 0.161 µM); in assay [4], 25 µg/mL (≈ 40.3 µM).
For `CO/N=C(\C(=O)N[C@@H]1C(=O)N2C(C(=O)O)=C(CSc3cc(CC(=O)O)nc4ncnn34)CS[C@H]12)c1csc(N)n1` [Compound 5, (6R,7R)-7-[2-(2-amino-4-thiazolyl)-2-(Z-methoxyimino)acetamido]-3-[(5-carboxymethyl-s-triazolo[1,5-a]pyrimidin-7-yl)thiomethyl]-8-oxo-5-thia-1-azabicyclo[4.2.0]oct-2-ene-2-carboxylic acid], the MIC was less than 0.05 µg/mL in assay [1]; 0.78 µg/mL (≈ 1.29 µM) in the assay with Proteus morganii IF03848; 3.13 µg/mL (≈ 5.17 µM) in assay [2]; 0.1 µg/mL (≈ 0.165 µM) in the assay on Escherichia coli 67; 0.2 µg/mL (≈ 0.33 µM) in assay [3]; more than 100 µg/mL in assay [4].
For the compound `CO/N=C(\C(=O)N[C@@H]1C(=O)N2C(C(=O)O)=C(CSc3c(C(=O)O)cnc4nc(C(=O)O)nn34)CS[C@H]12)c1csc(N)n1` [Compound 7, (6R,7R)-7-[2-(2-amino-4-thiazolyl)-2-(Z-methoxyimino)acetamido]-3-[(2,6-dicarboxy-s-triazolo[1,5-a]pyrimidin-7-yl)thiomethyl]-8-oxo-5-thia-1-azabicyclo[4.2.0]oct-2-ene-2-carboxylic acid], the MIC was less than 0.05 µg/mL in assay [1]; 0.39 µg/mL (≈ 0.614 µM) against Proteus morganii IF03848; 12.5 µg/mL (≈ 19.7 µM) in assay [2]; less than 0.05 µg/mL in the assay with Escherichia coli 67; 0.39 µg/mL (≈ 0.614 µM) in assay [3]; more than 100 µg/mL in assay [4].
On to `Cc1cc(SCC2=C(C(=O)O)N3C(=O)[C@@H](NC(=O)/C(=N\OC(=O)c4cccnc4)c4csc(N)n4)[C@H]3SC2)n2nc(C(=O)O)nc2n1` [Compound 11, (6R,7R)-7-[2-(2-amino-4-thiazolyl)-2-[Z-(3-pyridinecarbonyl)oxyimino]acetamido]-3-[(2-carboxy-5-methyl-s-trizolo[1,5-a]pyrimidin-7-yl)thiomethyl]-8-oxo-5-thia-1-azabicyclo[4.2.0]oct-2-ene-2-carboxylic acid], for which the MIC is less than 0.05 µg/mL in assay [1]; 0.1 µg/mL (≈ 0.144 µM) against Proteus morganii IF03848; 0.39 µg/mL (≈ 0.56 µM) in assay [2]; less than 0.05 µg/mL in the assay with Escherichia coli 67; less than 0.05 µg/mL in assay [3]; more than 100 µg/mL in assay [4].
On to `Cc1cc(SCC2=C(C(=O)O)N3C(=O)[C@@H](NC(=O)/C(=N\OC(=O)c4ccc5c(c4)OCO5)c4csc(N)n4)[C@H]3SC2)n2nc(C(=O)O)nc2n1` [Compound 12], for which the MIC in assay [1] was 0.39 µg/mL (≈ 0.527 µM); in the assay with Proteus morganii IF03848, 0.78 µg/mL (≈ 1.05 µM); in assay [2], 0.78 µg/mL (≈ 1.05 µM); against Escherichia coli 67 it was 0.39 µg/mL (≈ 0.527 µM); in assay [3], 0.39 µg/mL (≈ 0.527 µM); in assay [4], 25 µg/mL (≈ 33.8 µM).
Take `CC(=O)Oc1cc(C(=O)O/N=C(\C(=O)N[C@@H]2C(=O)N3C(C(=O)O)=C(CSc4cc(C)nc5nc(C(=O)O)nn45)CS[C@H]23)c2csc(N)n2)cc(OC(C)=O)c1OC(C)=O` [Compound 13]: the MIC in assay [1] was less than 0.05 µg/mL; in the assay with Proteus morganii IF03848, 0.2 µg/mL (≈ 0.23 µM); in assay [2] it was 0.78 µg/mL (≈ 0.897 µM); in the assay with Escherichia coli 67 it was 0.05 µg/mL (≈ 0.0575 µM); in assay [3] it was less than 0.05 µg/mL; in assay [4], 1.57 µg/mL (≈ 1.8 µM).
For the compound `CO/N=C(\C(=O)N[C@@H]1C(=O)N2C(C(=O)O)=C(CSc3ccnc4nc(C(=O)O)nn34)CS[C@H]12)c1csc(N)n1` [Compound 14, (6R,7R)-7-[2-(2-amino-4-thiazolyl)-2-(Z-methoxyimino)acetamido]-3-[(2-carboxy-s-triazolo[1,5-a]pyrimidin-7-yl)thiomethyl]-8-oxo-5-thia-1-azabicyclo[4.2.0]oct-2-ene-2-carboxylic acid], the minimal inhibitory concentration (MIC) in assay [1] is less than 0.05 µg/mL; in the assay with Proteus morganii IF03848 it was 0.2 µg/mL (≈ 0.338 µM); in assay [2] it was 3.13 µg/mL (≈ 5.29 µM); against Escherichia coli 67 it was 0.1 µg/mL (≈ 0.169 µM); in assay [3], less than 0.05 µg/mL; in assay [4], 50 µg/mL (≈ 84.5 µM).
On to `CO/N=C(\C(=O)N[C@@H]1C(=O)N2C(C(=O)O)=C(CSc3cc(O)nc4nc(C(=O)O)nn34)CS[C@H]12)c1csc(N)n1` [Compound 15], for which the MIC was less than 0.05 µg/mL in assay [1]; 0.78 µg/mL (≈ 1.28 µM) against Proteus morganii IF03848; 12.5 µg/mL (≈ 20.6 µM) in assay [2]; 0.39 µg/mL (≈ 0.642 µM) in the assay on Escherichia coli 67; 0.1 µg/mL (≈ 0.165 µM) in assay [3]; 12.5 µg/mL (≈ 20.6 µM) in assay [4].
As for `CO/N=C(\C(=O)N[C@@H]1C(=O)N2C(C(=O)O)=C(CSc3cc(OC)nc4ncnn34)CS[C@H]12)c1csc(N)n1` [Compound 16, (6R,7R)-7-[2-(2-amino-4-thiazolyl)-2-(Z-methoxyimino)acetamido]-3-[(5-methoxy-s-triazolo[1,5-a]pyrimidin-7-yl)thiomethyl]-8-oxo-5-thia-1-azabicyclo[4.2.0]oct-2-ene-2-carboxylic acid], the MIC in assay [1] is less than 0.05 µg/mL; against Proteus morganii IF03848, 3.13 µg/mL (≈ 5.42 µM); in assay [2] it was 1.57 µg/mL (≈ 2.72 µM); against Escherichia coli 67, 0.1 µg/mL (≈ 0.173 µM); in assay [3], 0.39 µg/mL (≈ 0.675 µM); in assay [4], 100 µg/mL (≈ 173 µM).
Take `CO/N=C(\C(=O)N[C@@H]1C(=O)N2C(C(=O)O)=C(CSc3cc(C)nc4nc(N)nn34)CS[C@H]12)c1csc(N)n1` [Compound 17, (6R,7R)-7-[2-(2-amino-4-thiazolyl)-2-(Z-methoxyimino)acetamido]-3-[(2-amino-5-methyl-s-triazolo[1,5-a]pyrimidin-7-yl)thiomethyl]-8-oxo-5-thia-1-azabicyclo[4.2.0]oct-2-ene-2-carboxylic acid]: the MIC in assay [1] was less than 0.05 µg/mL; against Proteus morganii IF03848 it was 0.39 µg/mL (≈ 0.676 µM); in assay [2], 1.57 µg/mL (≈ 2.72 µM); against Escherichia coli 67 it was 0.1 µg/mL (≈ 0.173 µM); in assay [3] it was 0.2 µg/mL (≈ 0.347 µM); in assay [4], 50 µg/mL (≈ 86.7 µM).
With `CO/N=C(\C(=O)N[C@@H]1C(=O)N2C(C(=O)O)=C(CSc3cc(C)nc4nc(S(=O)(=O)O)nn34)CS[C@H]12)c1csc(N)n1` [Compound 18, (6R,7R)-7-[2-(2-amino-4-thiazolyl)-2-(Z-methoxyimino)acetamido]-3-[(2 hydroxysulfonyl-5-methyl-s-triazolo[1,5-a]pyrimidin-7-yl)thiomethyl]-8-oxo-5-thia-1-azabicyclo[4.2.0]oct 2-ene-2-carboxylic acid], the MIC was less than 0.05 µg/mL in assay [1]; 0.78 µg/mL (≈ 1.22 µM) with Proteus morganii IF03848; 0.39 µg/mL (≈ 0.608 µM) in assay [2]; less than 0.05 µg/mL with Escherichia coli 67; 0.2 µg/mL (≈ 0.312 µM) in assay [3]; 100 µg/mL (≈ 156 µM) in assay [4].
On to `CO/N=C(\C(=O)N[C@@H]1C(=O)N2C(C(=O)O)=C(CSc3nc4ncc(C(=O)O)c(O)n4n3)CS[C@H]12)c1csc(N)n1` [Compound 19, (6R,7R)-7-[2-(2-amino-4-thiazolyl)-2-(Z-methoxyimino)acetamido]-3-[(6-carboxy-7-hydroxy-s-triazolo[1,5-a]pyrimidin-2-yl)thiomethyl]-8-oxo-5-thia-1-azabicyclo[4.2.0]oct-2-ene-2-carboxylic acid], for which the MIC was less than 0.05 µg/mL in assay [1]; 0.2 µg/mL (≈ 0.329 µM) against Proteus morganii IF03848; 6.25 µg/mL (≈ 10.3 µM) in assay [2]; less than 0.05 µg/mL against Escherichia coli 67; less than 0.05 µg/mL in assay [3]; 6.25 µg/mL (≈ 10.3 µM) in assay [4].
For the compound `CO/N=C(\C(=O)N[C@@H]1C(=O)N2C(C(=O)O)=C(CSc3cc(C(=O)O)nc4nnc(C)n34)CS[C@H]12)c1csc(N)n1` [Compound 20, (6R,7R)-7-[2-(2-amino-4-thiazolyl)-2-(Z-methoxyimino)acetamido]-3-[(7-carboxy-3-methyl-s-triazolo[4,3-a]pyrimidin-5-yl)thiomethyl]-8-oxo-5-thia-1-azabicyclo[4.2.0]oct-2-ene-2-carboxylic acid], the MIC was less than 0.05 µg/mL in assay [1]; 0.78 µg/mL (≈ 1.29 µM) in the assay on Proteus morganii IF03848; 3.13 µg/mL (≈ 5.17 µM) in assay [2]; 0.2 µg/mL (≈ 0.33 µM) with Escherichia coli 67; 0.2 µg/mL (≈ 0.33 µM) in assay [3]; 12.5 µg/mL (≈ 20.6 µM) in assay [4].
Take `CO/N=C(\C(=O)N[C@@H]1C(=O)N2C(C(=O)O)=C(CSc3nnc4nc(C(=O)O)cc(O)n34)CS[C@H]12)c1csc(N)n1` [Compound 21, (6R,7R)-7-[2-(2-amino-4-thiazolyl)-2-(Z-methoxyimino)acetamido]-3-[(7-carboxy-5-hydroxy-s-triazolo[4,3-a]pyrimidin-3-yl)thiomethyl]-8-oxo-5-thia-1-azabicyclo[4.2.0]oct-2-ene-2-carboxylic acid]: the MIC in assay [1] was 0.1 µg/mL (≈ 0.165 µM); with Proteus morganii IF03848 it was 3.13 µg/mL (≈ 5.15 µM); in assay [2], 25 µg/mL (≈ 41.1 µM); against Escherichia coli 67 it was 0.78 µg/mL (≈ 1.28 µM); in assay [3], 1.57 µg/mL (≈ 2.58 µM); in assay [4] it was more than 100 µg/mL.

Values taken from patent publication US5064953A, “Intermediates cephalosporin derivatives” (Mochida Pharmaceutical Co., Ltd., priority 1983, dated 1991).
